In article PMC8424644, “Thermodynamic Stability and Speciation of Ga(III) and Zr(IV) Complexes with High-Denticity Hydroxamate Chelators” (Inorganic Chemistry, 2021):
Marks after values point to notes of the source that are not given here.

Legend:
[1] = pGa calculation (ligand sequestering ability); format: physicochemical; settings: pGa = −log[Ga(III)free], pH 7.4, cL = 10 μM, cGa(III) = 1 μM
Description: Despite a large variety of PET chelators synthesized and tested in order to provide strong coordination of Ga(III) and Zr(IV) in vivo, until now it is has been hard to avoid the release of these metal ions in the body. Here we report two new Ga(III) and Zr(IV) hydroxamate chelators, designed to achieve an efficient sequestering of these metal ions but also to understand how the cyclization and the introduction of an additional hydroxamate group influences the stability of Zr(IV) complexes. Therefore, it is important to evaluate and compare the Ga(III)- and Zr(IV)-sequestering abilities of H3L1 and H4L2 with those of other chelators. However, the direct comparison of the stability constants of metal complexes is not straightforward, and other tools taking into account all the physicochemical properties of the ligands, i.e. their denticity, coordination modes, and acid–base properties, should be used.[52] In order to reliably compare the chelating abilities of H3L1 and H4L2 toward Ga(III) and Zr(IV) ions, the pM values were calculated. pFe was originally introduced by Raymond for the comparison of iron-siderophore systems;[53] pGa = −log[Ga(III)free] and pZr = −log[Zr(IV)free] were calculated at pH 7.4 with cL = 10 μM and cGa(III)/Zr(IV) = 1 μM (Table 2).

[2] = Fe(III) complex stability, potentiometric titrations; format: physicochemical; settings: 25 °C, I = 0.1 M NaClO4
Description: To evaluate the thermodynamic stability of Ga(III) and Zr(IV) complexes of the investigated ligands, the binding properties and speciation of Fe(III) complexes have first been determined (all the details are given in the Supporting Information). There are several reasons for this protocol. First, (i) the electron configuration of Ga(III) (d^10) and Zr(IV) (d^0) hinders the attainment of spectral information for most of the complexes. Furthermore, (ii) both metal ions are highly acidic and they are readily hydrolyzed over almost the entire pH range. In addition, (iii) the high charge to size ratio of the Zr(IV) ion implies the formation of complexes with an exceptional thermodynamic stability (already at very low pH); as a consequence, the stability constants cannot be directly determined using standard potentiometric titrations. Thus, the thermodynamic stability constants of the Fe(III)-H3L1 and Fe(III)-H4L2 systems were first determined (using a combination of potentiometric and pH-dependent UV–vis titrations), followed by Fe(III)–Ga(III) and Fe(III)–Zr(IV) metal–metal competition experiments. […]
Accordingly, the following speciation could be drawn from the spectra collected: the complexes formation starts at pH<1 involving two hydroxamate groups coordinated to Fe(III) ion, while the three hydroxamate complexes are observed over pH range 3-9. Above pH 9, the absorbance begins to […]

| pGa [1] | log β [FeL] [2] | log β [FeHL] [2] | Structure (SMILES) |
| --- | --- | --- | --- |
| 22.5 | 28.7(1) ^d |  | O=C1CCCN(O)C(=O)CCCNC(=O)CCCN(O)C(=O)CCCNC(=O)CCCN(O)C(=O)CCCN1 [H3L1, 1,11,21-Trihydroxy-1,6,11,16,21,26-hexaazacyclotriacontane-2,7,12,17,22,27-hexaone] |
| 22.3 |  | 36.82(6) ^d | N[C@H]1CCCCNC(=O)CCCN(O)C(=O)CCCNC(=O)CCCN(O)C(=O)CCCNC(=O)CCCN(O)C(=O)CCCNC(=O)CCCN(O)C(=O)CCCNC1=O [H4L2, (S)-43-Amino-6,16,26,36-tetrahydroxy-1,6,11,16,21,26,31,36,41-nonaazacycloheptatetracontane-2,7,12,17,22,27,32,37,42-nonaone] |
